Measurements from ChEMBL document CHEMBL3885881, “DrugMatrix”.

Species: Rattus norvegicus
Assay: DrugMatrix - Regimen: Daily Repeat
Assay type: toxicity, organism-based, Sprague-Dawley
Set-up: regimen Daily Repeat, gender Male, age 6-8 weeks
Conditions: in vivo, po, route oral GAVAGE, vehicle .5 % CMC; for ABSOLUTE BASOPHIL / ABSOLUTE EOSINOPHIL / ABSOLUTE LYMPHOCYTE / ABSOLUTE MONOCYTE / ABSOLUTE SEGMENTED NEUTROPHIL / BASOPHIL / EOSINOPHIL / ERYTHROCYTE COUNT / HEMATOCRIT / HEMOGLOBIN / LEUKOCYTE COUNT / LYMPHOCYTE / MEAN CORPUSCULAR HEMOGLOBIN / MEAN CORPUSCULAR HEMOGLOBIN CONCENTRATION / MEAN CORPUSCULAR VOLUME / MONOCYTE / NEUTROPHIL / NUCLEATED RED BLOOD CELLS / PLATELET COUNT: tissue Blood; for ALANINE AMINOTRANSFERASE / ALBUMIN / ALKALINE PHOSPHATASE / ASPARTATE AMINOTRANSFERASE / BLOOD UREA NITROGEN / CARBON DIOXIDE / CHLORIDE / CHOLESTEROL / CREATINE PHOSPHOKINASE / CREATININE / GLUCOSE / LACTATE DEHYDROGENASE / LIPASE / PHOSPHORUS / POTASSIUM / SODIUM / TOTAL BILIRUBIN / TOTAL PROTEIN / URIC ACID: tissue Plasma
[1] = 50 mg/kg, 120 h, dose level Low, time 5 day
[2] = 2500 mg/kg, 72 h, dose level High, time 3 day
[3] = 2500 mg/kg, 120 h, dose level High, time 5 day

CC(=O)O[C@]1(C(C)=O)CC[C@H]2[C@@H]3C=C(Cl)C4=CC(=O)[C@@H]5C[C@@H]5[C@]4(C)[C@H]3CC[C@@]21C [CYPROTERONE ACETATE]
ABSOLUTE BASOPHIL [1]: 0 CELLS/uL | ABSOLUTE EOSINOPHIL [1]: 24.33 CELLS/uL | ABSOLUTE LYMPHOCYTE [1]: 7928 CELLS/uL | ABSOLUTE MONOCYTE [1]: 144 CELLS/uL | ABSOLUTE SEGMENTED NEUTROPHIL [1]: 637 CELLS/uL | BASOPHIL [1]: 0% | EOSINOPHIL [1]: 0.33% | ERYTHROCYTE COUNT [1]: 5.93 x10E6/uL | HEMATOCRIT [1]: 37.07% | HEMOGLOBIN [1]: 14.9 G/DL | LEUKOCYTE COUNT [1]: 8.73 x10E3/uL | LYMPHOCYTE [1]: 90.33% | MEAN CORPUSCULAR HEMOGLOBIN [1]: 25.13 pg | MEAN CORPUSCULAR HEMOGLOBIN CONCENTRATION [1]: 40.23 G/DL | MEAN CORPUSCULAR VOLUME [1]: 62.47 fL | MONOCYTE [1]: 1.67% | NEUTROPHIL [1]: 7.67% | NUCLEATED RED BLOOD CELLS [1]: 0 /100WBC | PLATELET COUNT [1]: 1115.67 x10E3/uL | ALANINE AMINOTRANSFERASE [1]: 68.33 u/L | ALBUMIN [1]: 4.4 G/DL | ALKALINE PHOSPHATASE [1]: 339 u/L | ASPARTATE AMINOTRANSFERASE [1]: 88 u/L | BLOOD UREA NITROGEN [1]: 15.67 mg/dL | CARBON DIOXIDE [1]: 30.33 mmol/L | CHLORIDE [1]: 101 MEQ/L | CHOLESTEROL [1]: 79 mg/dL | CREATINE PHOSPHOKINASE [1]: 291 u/L | CREATININE [1]: 0.18 mg/dL | GLUCOSE [1]: 165 mg/dL | LACTATE DEHYDROGENASE [1]: 169 u/L | LIPASE [1]: 11 u/L | PHOSPHORUS [1]: 12.3 mg/dL | POTASSIUM [1]: 5.54 MEQ/L | SODIUM [1]: 144.17 MEQ/L | TOTAL BILIRUBIN [1]: 0.13 mg/dL | TOTAL PROTEIN [1]: 6.5 G/DL | URIC ACID [1]: 1.33 mg/dL | ABSOLUTE BASOPHIL [2]: 0 CELLS/uL | ABSOLUTE EOSINOPHIL [2]: 156.67 CELLS/uL | ABSOLUTE LYMPHOCYTE [2]: 10772 CELLS/uL | ABSOLUTE MONOCYTE [2]: 88.67 CELLS/uL | ABSOLUTE SEGMENTED NEUTROPHIL [2]: 1249.33 CELLS/uL | BASOPHIL [2]: 0% | EOSINOPHIL [2]: 1.33% | ERYTHROCYTE COUNT [2]: 5.59 x10E6/uL | HEMATOCRIT [2]: 36.7% | HEMOGLOBIN [2]: 14.03 G/DL | LEUKOCYTE COUNT [2]: 12.27 x10E3/uL | LYMPHOCYTE [2]: 88% | MEAN CORPUSCULAR HEMOGLOBIN [2]: 25.07 pg | MEAN CORPUSCULAR HEMOGLOBIN CONCENTRATION [2]: 38.23 G/DL | MEAN CORPUSCULAR VOLUME [2]: 65.63 fL | MONOCYTE [2]: 0.67% | NEUTROPHIL [2]: 10% | NUCLEATED RED BLOOD CELLS [2]: 0.33 /100WBC | PLATELET COUNT [2]: 1080.33 x10E3/uL | ALANINE AMINOTRANSFERASE [2]: 69.67 u/L | ALBUMIN [2]: 4.07 G/DL | ALKALINE PHOSPHATASE [2]: 424.67 u/L | ASPARTATE AMINOTRANSFERASE [2]: 99.67 u/L | BLOOD UREA NITROGEN [2]: 14.33 mg/dL | CARBON DIOXIDE [2]: 30 mmol/L | CHLORIDE [2]: 100.67 MEQ/L | CHOLESTEROL [2]: 113.33 mg/dL | CREATINE PHOSPHOKINASE [2]: 639.67 u/L | CREATININE [2]: 0.2 mg/dL | GLUCOSE [2]: 151.33 mg/dL | LACTATE DEHYDROGENASE [2]: 603.33 u/L | LIPASE [2]: 12.67 u/L | PHOSPHORUS [2]: 11.2 mg/dL | POTASSIUM [2]: 6.3 MEQ/L | SODIUM [2]: 141.73 MEQ/L | TOTAL BILIRUBIN [2]: 0.13 mg/dL | TOTAL PROTEIN [2]: 6 G/DL | URIC ACID [2]: 0.83 mg/dL | ABSOLUTE BASOPHIL [3]: 0 CELLS/uL | ABSOLUTE EOSINOPHIL [3]: 62.33 CELLS/uL | ABSOLUTE LYMPHOCYTE [3]: 8852.33 CELLS/uL | ABSOLUTE MONOCYTE [3]: 146.33 CELLS/uL | ABSOLUTE SEGMENTED NEUTROPHIL [3]: 2339 CELLS/uL | BASOPHIL [3]: 0% | EOSINOPHIL [3]: 0.67% | ERYTHROCYTE COUNT [3]: 5.55 x10E6/uL | HEMATOCRIT [3]: 34.3% | HEMOGLOBIN [3]: 13.77 G/DL | LEUKOCYTE COUNT [3]: 11.4 x10E3/uL | LYMPHOCYTE [3]: 80% | MEAN CORPUSCULAR HEMOGLOBIN [3]: 24.8 pg | MEAN CORPUSCULAR HEMOGLOBIN CONCENTRATION [3]: 40.13 G/DL | MEAN CORPUSCULAR VOLUME [3]: 61.87 fL | MONOCYTE [3]: 1.33% | NEUTROPHIL [3]: 18% | NUCLEATED RED BLOOD CELLS [3]: 0.33 /100WBC | PLATELET COUNT [3]: 1381.33 x10E3/uL | ALANINE AMINOTRANSFERASE [3]: 94 u/L | ALBUMIN [3]: 4.3 G/DL | ALKALINE PHOSPHATASE [3]: 317.67 u/L | ASPARTATE AMINOTRANSFERASE [3]: 101.67 u/L | BLOOD UREA NITROGEN [3]: 21.33 mg/dL | CARBON DIOXIDE [3]: 23.67 mmol/L | CHLORIDE [3]: 98.67 MEQ/L | CHOLESTEROL [3]: 98.67 mg/dL | CREATINE PHOSPHOKINASE [3]: 467 u/L | CREATININE [3]: 0.27 mg/dL | GLUCOSE [3]: 223 mg/dL | LACTATE DEHYDROGENASE [3]: 496 u/L | LIPASE [3]: 10.67 u/L | PHOSPHORUS [3]: 12.8 mg/dL | POTASSIUM [3]: 6.34 MEQ/L | SODIUM [3]: 142.07 MEQ/L | TOTAL BILIRUBIN [3]: 0.17 mg/dL | TOTAL PROTEIN [3]: 7 G/DL | URIC ACID [3]: 2.1 mg/dL
